From publication PMC7178208 (International Journal of Molecular Sciences, 2020)
In brackets after ≈: the same amount, converted by molar mass. Entries after “also recorded” stand apart in the source; their conditions may differ. Square brackets hold non-standard residues; d marks the D form. Peptide text beside a SMILES is read from it. * marks the point of attachment. FITC = O=C1OC2(c3ccc(O)cc3Oc3cc(O)ccc32)c2ccc(NC(=S)*)cc21; Bip = N[C@@H](Cc1ccc(-c2ccccc2)cc1)C(=O)O; Dip = N[C@H](C(=O)O)C(c1ccccc1)c1ccccc1; Ahx = NCCCCCC(=O)O

Columns and labels:
[1] = tested on: C. albicans American Type Culture Collection (ATCC) 10,231; format: cell-based, Candida albicans; conditions: American Type Culture Collection (ATCC) 10,231, 24 h
Procedure: C. albicans (ATCC 10231) from the American Type Culture Collection (Manassas, VA, USA) was cultured at 28 °C on SD agar plates.
To determine the minimum inhibitory concentration (MIC) values of the FITC conjugated-P-113 peptides and their derivatives, a broth microdilution assay was used. Overnight-grown cultures of C. albicans in SD broth were sub-cultured for several hours and subsequently diluted to a final concentration of 5 × 10^4 CFU/mL in Mueller Hinton (MH) broth and LYM broth. A total of 100 μL of diluted microbe was transferred into each well of a 96-well plate, into which a 1 μL dilution series of peptides in sterile water (ranging from 50 to 0.78 μg/mL) was previously added. After incubation for 24 h at 28 ℃, the MIC value of P-113 peptides was determined as the lowest concentration at which no change in optical density was observed. The experiment was conducted three times, and average values were reported.

[2] = histidine residues replaced with non-natural amino acids; cited from earlier work
Candida albicans = format: cell-based; conditions: 1× MIC, 30 min, SD broth, 28 °C, 5 × 10^4 CFU/mL, normal salt conditions, triplicate
Procedure: Figure 7 Time killing activity of FITC-labeled P-113 peptide and its FITC-labeled derivatives against Candida albicans. Cells were treated with 1× MIC of (a) P-113 (black circle), FITC-labeled N-terminal truncated P-113 (black square), FITC-labeled C-terminal truncated P-113 (black triangle), and (b) treated with FITC-labeled Bip-P-113 (white square), and FITC-labeled Dip-P-113 (white triangle). Killed cells (%) = (cell number in peptide-free control − cell number in sample)/(cell number in peptide-free control) × 100. Error bars represent the standard errors of the mean.
C. albicans were cultivated onto Sabouraud dextrose agar plates overnight and sub-cultured twice before time killing assays. A total of 5 × 10^4 CFU/mL of C. albicans cells were treated with 1× MIC of FITC-conjugated P-113 peptides and their derivatives in SD broth for 10, 20, 30, 60, and 120 min at 28 °C. After that time, serial dilutions (1:10) of the incubation mixtures were added onto SD agar. The numbers of CFU were counted after 24 h of incubation at 28 °C. The percentage of killed cells was calculated by comparison with the number of cells in a control sample incubated without P-113 peptide. The assays were performed in triplicate.

C. albicans [3] = assay: Scanning electron microscopy, cell morphology; format: cell-based, Candida albicans; conditions: 50 μM peptide, 10^7 CFU/mL, SD broth, 28 °C, 5 min
Procedure: Time-course morphological studies of C. albicans were performed by scanning electron microscopy (SEM). Overnight cultures of C. albicans were sub-cultured and grown in SD broth. Then, 10^7 CFU/mL of C. albicans was treated with 0.25 mM P-113 in SD broth at 28 °C. Samples were collected following 1, 2, 3, 4, 5, and 6 h of incubation. Another experiment was performed to observe the morphological changes caused over in a short time caused by Bip-P-113 and Dip-P-113. Briefly, 10^7 CFU/mL of C. albicans in SD broth was treated for 5 min at 28 °C with 50 μM P-113, Bip-P-113, and Dip-P-113. After harvest, cells were resuspended in fixation solution (2.5% glutaraldehyde in 20 mM phosphate buffer pH 7.4) and then placed on Thermanox substrate-coated cover slips at 4 °C for 12 h. The cover slips were carefully washed three times with 20 mM phosphate buffer (pH 7.4), followed by incubation in post-fixation solution (1% OsO4 in 20 mM phosphate buffer pH 7.4) at room temperature for an hour. After being washed three times with 20 mM phosphate buffer (pH 7.4), the cover slips were air-dried for an hour by dehydration with a graded series of ethanol. Samples were gold-coated and observed under an S-4700 field-emission (FE)-SEM (Hitachi, Ltd., Tokyo, Japan) at an acceleration voltage of 5 kV.

C. albicans [4] = assay: Confocal laser microscopy, localization of FITC peptides; format: cell-based, Candida albicans; conditions: 50 μM FITC-conjugated peptide, 10^7 CFU/mL, SD broth, 28 °C, 5 min
Procedure: Firstly, 10^7 CFU/mL of C. albicans was incubated with 0.25 mM FITC P-113 and 0.25 mM FITC alone (as a negative control) in SD broth at 28 °C for 1, 2, 3, 4, 5, and 6 h. Another experiment was performed to observe the short-term localization of Bip-P-113 and Dip-P-113 peptides. Briefly, log-phase C. albicans cultures were resuspended to a cell density of 10^7 CFU/mL in SD broth and treated for 5 min at 28 °C with 50 μM FITC-conjugated P-113, Bip-P-113, and Dip-P-113. After centrifugation, the cells were washed three times with 20 mM phosphate buffer (pH 7.4) to remove nonbinding peptides and fixed with 4% (w/v) paraformaldehyde in 20 mM phosphate buffer (pH 7.4) at room temperature for 20 min. Following fixation, the cells were centrifuged at 3500× g for 5 min, resuspended in phosphate buffer, and loaded onto a glass slide with a 1.4% solid agarose bed. The images were taken with a confocal laser scanning microscope (LSM 510 META, Carl Zeiss, Jena, Germany) equipped with a 40× C-Apochromat water-immersion objective lens (Carl Zeiss, Jena, Germany).

C. albicans [5] = assay: Flow cytometry, fluorescence of cells incubated with FITC peptides; format: cell-based, Candida albicans; conditions: 50 μM FITC peptide, 5 × 10^6 CFU/mL, SD broth, 28 °C, 30 min, n = 3
Procedure: Firstly, 5 × 10^6 CFU/mL of C. albicans cells were incubated with 50 µM FITC P-113, FITC N-terminal truncated P-113, and FITC C-terminal truncated P-113 peptides for 30 min at 28 °C in SD broth. The resuspended cell pellets described above were also used for flow cytometry experiments. Flow cytometric cell sorting was performed (10,000 events/sample) by using flow cytometry (BD Accuri™ C6 Plus Flow Cytomete, BD Biosciences, NJ, USA). The quantitative data were analyzed by Prism software.

C. albicans [6] = assay: Fluorescence microscopy, localization of FITC truncated peptides; format: cell-based, Candida albicans; conditions: 50 μM FITC peptide, 10^7 CFU/mL, SD broth, 28 °C, 30 min
Procedure: Firstly, 10^7 CFU/mL of C. albicans cells were incubated with 50 µM FITC N-terminal truncated P-113, FITC C-terminal truncated P-113 peptides, and FITC alone for 30 min at 28 °C in SD broth. After incubation, the cells were centrifuged at 3500× g for 5 min and then washed three times with 20 mM phosphate buffer (pH 7.4) to remove unbound peptides. The resulting pellets were resuspended and immobilized on the glass slips with a 1.4% solid agarose bed. Fluorescence images were captured using an inverted fluorescence microscope (ECLIPSE E400, Nikon, Tokyo, Japan) with a camera (AxioCam ICc5, ZEISS, Jena, Germany).

[7] = 10^7 CFU/mL of C. albicans + 0.5 mM pepstatin A; conditions: C. albicans (ATCC 10231), 301 K, up to 24 h
[8] = 10^7 CFU/mL of C. albicans in SD broth; conditions: C. albicans (ATCC 10231), 301 K, up to 24 h

## N=C(N)NCCC[C@H](NC(=O)CCCCCNC(=S)Nc1ccc2c(c1)C(=O)OC21c2ccc(O)cc2Oc2cc(O)ccc21)C(=O)N[C@@H](Cc1c[nH]cn1)C(=O)N[C@@H](Cc1c[nH]cn1)C(=O)NCC(=O)N[C@@H](Cc1ccc(O)cc1)C(=O)N[C@@H](CCCCN)C(=O)N[C@@H](CCCNC(=N)N)C(=O)N[C@@H](CCCCN)C(=O)N[C@@H](Cc1ccccc1)C(=O)N[C@@H](Cc1c[nH]cn1)C(N)=O [N-ter truncated P-113] ({FITC-Ahx}-RHHGYKRKFH-NH2; N-terminus assumed)
[1]
  MIC, LYM Control: 25 µg/mL (≈ 13.4 µM)
  MIC, MH Broth: >50 µg/mL

## C[C@H](NC(=O)CCCCCNC(=S)Nc1ccc2c(c1)C(=O)OC21c2ccc(O)cc2Oc2cc(O)ccc21)C(=O)N[C@@H](CCCCN)C(=O)N[C@@H](CCCNC(=N)N)C(=O)N[C@@H](Cc1ccc(-c2ccccc2)cc1)C(=O)N[C@@H](Cc1ccc(-c2ccccc2)cc1)C(=O)NCC(=O)N[C@@H](Cc1ccc(O)cc1)C(=O)N[C@@H](CCCCN)C(=O)N[C@@H](CCCNC(=N)N)C(=O)N[C@@H](CCCCN)C(=O)N[C@@H](Cc1ccccc1)C(=O)N[C@@H](Cc1ccc(-c2ccccc2)cc1)C(N)=O [Bip-P-113] ({FITC-Ahx}-AKR[Bip][Bip]GYKRKF[Bip]-NH2; N-terminus assumed)
[2]
  Degradation in serum: protects
Candida albicans
  Reduction in cell viability: 99%
C. albicans [3]
  Cell surface morphology (SEM), short exposure: became rippled and showed deep pore formation
C. albicans [4]
  Cellular localization of FITC peptide: accumulated on the surface of cells and did not translocate into the cytoplasm

## C[C@H](NC(=O)CCCCCNC(=S)Nc1ccc2c(c1)C(=O)OC21c2ccc(O)cc2Oc2cc(O)ccc21)C(=O)N[C@@H](CCCCN)C(=O)N[C@@H](CCCNC(=N)N)C(=O)N[C@@H](Cc1c[nH]cn1)C(=O)N[C@@H](Cc1c[nH]cn1)C(=O)NCC(=O)N[C@@H](Cc1ccc(O)cc1)C(=O)N[C@@H](CCCCN)C(=O)N[C@@H](CCCNC(=N)N)C(=O)N[C@@H](CCCCN)C(N)=O [C-ter truncated P-113] ({FITC-Ahx}-AKRHHGYKRK-NH2; N-terminus assumed)
C. albicans [5]
  Fluorescence intensity of cells compared with cells incubated with intact P-113: dramatic decrease in fluorescence intensity
C. albicans [6]
  Green fluorescence in cells compared with N-terminal truncated P-113: less green fluorescence
[1]
  MIC, LYM Control: 50 µg/mL (≈ 28.1 µM)
  MIC, MH Broth: >50 µg/mL

## AKRHHGYKRKFH
[7]
  not cleaved: no noticeable changes in ^1H-^15N HSQC chemical shifts in the presence of pepstatin A (24 h)
[8]
  cleaved bond: Lys10-Phe11, first_seen, 1 h; also recorded: Tyr7-Lys8, 2–3 h; also recorded: Lys8-Arg9

## C[C@H](NC(=O)CCCCCNC(=S)Nc1ccc2c(c1)C(=O)OC21c2ccc(O)cc2Oc2cc(O)ccc21)C(=O)N[C@@H](CCCCN)C(=O)N[C@@H](CCCNC(=N)N)C(=O)N[C@H](C(=O)N[C@H](C(=O)NCC(=O)N[C@@H](Cc1ccc(O)cc1)C(=O)N[C@@H](CCCCN)C(=O)N[C@@H](CCCNC(=N)N)C(=O)N[C@@H](CCCCN)C(=O)N[C@@H](Cc1ccccc1)C(=O)N[C@H](C(N)=O)C(c1ccccc1)c1ccccc1)C(c1ccccc1)c1ccccc1)C(c1ccccc1)c1ccccc1 [Dip-P-113] ({FITC-Ahx}-AKR[Dip][Dip]GYKRKF[Dip]-NH2; N-terminus assumed)
[2]
  Degradation in serum: protects
C. albicans [3]
  Cell surface morphology (SEM), short exposure: became rippled and showed deep pore formation
C. albicans [4]
  Cellular localization of FITC peptide: accumulated on the surface of cells and did not translocate into the cytoplasm
